System: Human coronavirus 229E
Test: Antiviral activity against HCoV-229E harboring GFP infected in human Huh-7 cells treated 1 hr prior to viral infection by fluorometric analysis
Type: functional, organism-based

In the case of `CCN(CC)CCCC(C)Nc1ccnc2cc(Cl)ccc12` (stereo unspecified) [CHLOROQUINE], the EC50 is reported as 3.3 µM.

Reference: ChEMBL document CHEMBL4715853 (J Med Chem, 2020)
